Assay results reported in patent publication US11471417B2 (Small Pharma Ltd, priority 2020, dated 2022).

Tests used:
[1] = In vitro human mitochondrial fraction intrinsic clearance of SPL026 with/without MAO-A and MAO-B inhibitors; format: in vitro ADME; details: for half-life / microsomal CLint: 0.5 mg/mL human liver mitochondrial fraction
[2] = system: Human (mixed gender) hepatocytes; assay: In vitro intrinsic clearance in human hepatocytes with and without MAO inhibitors (first experiment); details: for Half-life % change / Intrinsic clearance % change: with MAO inhibitors vs no inhibitors
[3] = as above; details: both, human, hepatocytes (pooled, 10 donors), human hepatocytes
[4] = In vitro human mitochondrial fraction intrinsic clearance of SPL026 and SPL028 analogues; details: for microsomal CLint: Intrinsic Clearance
[5] = In vitro intrinsic clearance in human hepatocytes, D2, D6 and D8 DMT (third experiment); details: both, hepatocytes (pooled, 10 donors)
[6] = with 100 nM Deprenyl/Selegiline (MAO-B inhibitor), Deprenyl (MAO-B inhibitor) 100 nM
[7] = Half-life With inhibitors, with MAO-A/B inhibitor combination (Table 5)
[8] = Half-life Without inhibitors, without MAO-A/B inhibitor combination (Table 5)
[9] = Intrinsic clearance With inhibitors, with MAO-A/B inhibitor combination (Table 5)
[10] = Intrinsic clearance Without inhibitors, without MAO-A/B inhibitor combination (Table 5)
[11] = in vitro half-life With inhibitors, 5 μM, with 100 nM clorgyline and 100 nM Deprenyl/Selegiline (Table 4)
[12] = in vitro half-life Without inhibitors, 5 μM, without MAO inhibitors (Table 4)
[13] = 0.5 mg/mL human liver mitochondrial fraction, first experiment r7-r12, repeat r13-r20
[14] = human, liver mitochondrial fraction, Half-Life R1, human liver mitochondrial fraction, replicate R1
[15] = human, liver mitochondrial fraction, Half-Life R2, human liver mitochondrial fraction, replicate R2
[16] = human, liver mitochondrial fraction, Half-Life R3, human liver mitochondrial fraction, replicate R3
[17] = human, liver mitochondrial fraction, Half-Life R4, human liver mitochondrial fraction, replicate R4
[18] = human, liver mitochondrial fraction, 0.5 mg/mL human liver mitochondrial fraction, first experiment r7-r12, repeat r13-r20
[19] = human hepatocytes, MAO inhibitors vs none
[20] = human, liver mitochondrial fraction, Half-life, 0.5 mg/mL human liver mitochondrial fraction, first experiment r7-r12, repeat r13-r20
[21] = with 100 nM clorgyline (MAO-A inhibitor), Clorgyline (MAO-A inhibitor) 100 nM

Compound: NCc1ccccc1 [Benzylamine]
- half-life ([1]; DMSO Vehicle (no inhibitor)): 30.4 min
- microsomal CLint ([1]; DMSO Vehicle (no inhibitor)): 45.7 µL/min/mg
- half-life [1, 6]: > 420 min
- microsomal CLint [1, 6]: < 3.3 µL/min/mg
- Half-life % change ([2]; human hepatocytes): >83.41%
- Intrinsic clearance % change ([2]; human hepatocytes): <−450%
- half-life at 5 μM [3, 7]: 460 min
- half-life at 5 μM [3, 8]: 76.3 min
- hepatocyte CLint at 5 μM [3, 9]: < 3 µL/min/1e6 cells
- hepatocyte CLint at 5 μM [3, 10]: 16.7 µL/min/1e6 cells
- half-life at 5 μM [3, 11]: 460 min
- half-life at 5 μM [3, 12]: 76.3 min
- Intrinsic Clearance [4, 13]: 62.1 μL/min/mg protein
- half-life [4, 14]: 24.3 min
- half-life [4, 15]: 22.1 min
- half-life [4, 16]: 21.2 min
- half-life [4, 17]: 23.5 min
- microsomal CLint [4, 18]: 60 µL/min/mg

Compound: [2H]C([2H])(Cc1c[nH]c2ccccc12)N(C)C [SPL028i, α,α-dideutero-N,N-dimethyltryptamine]
- half-life at 5 μM [5]: 233 min
- hepatocyte CLint at 5 μM [5]: 8.3 µL/min/1e6 cells
- quicker intrinsic clearance in the presence of MAO inhibitors [2, 19]: ~5%
- change in intrinsic clearance and half-life compared to SPL026 ([2]; initial human hepatocyte studies): ~2 fold
- Half-life % change ([2]; human hepatocytes): −5.33%
- Intrinsic clearance % change ([2]; human hepatocytes): 4.67%
- half-life at 5 μM [3, 7]: 170 min
- hepatocyte CLint at 5 μM [3, 9]: 7.5 µL/min/1e6 cells
- hepatocyte CLint at 5 μM [3, 10]: 7.15 µL/min/1e6 cells
- half-life at 5 μM [3, 11]: 170 min
- half-life [4, 13]: 92.8 min
- half-life [4, 14]: 86.1 min
- half-life [4, 15]: 99.4 min
- half-life [4, 16]: 82.6 min
- half-life [4, 17]: 72.1 min
- half-life [4, 20]: 77.3 min

Compound: CN(C)CCc1c[nH]c2ccccc12 [SPL026, N,N-dimethyltryptamine]
- half-life ([1]; DMSO Vehicle (no inhibitor)): 33.7 min
- microsomal CLint ([1]; DMSO Vehicle (no inhibitor)): 42.9 µL/min/mg
- increase in intrinsic clearance with MAO-A inhibitor (Clorgyline) compared to SPL026 without MAO inhibitors ([1]; human liver mitochondrial fraction): 10 fold
- half-life [1, 6]: 32.5 min
- microsomal CLint [1, 6]: 42.7 µL/min/mg
- half-life [1, 21]: > 374 min
- microsomal CLint [1, 21]: < 3.9 µL/min/mg
- half-life at 5 μM [5]: 98.9 min
- hepatocyte CLint at 5 μM [5]: 19.4 µL/min/1e6 cells
- slower intrinsic clearance with inclusion of MAO inhibitors [2, 19]: ~4%
- Half-life % change ([2]; human hepatocytes): 3.82%
- Intrinsic clearance % change ([2]; human hepatocytes): −4.00%
- half-life at 5 μM [3, 7]: 96.1 min
- half-life at 5 μM [3, 8]: 92.4 min
- hepatocyte CLint at 5 μM [3, 9]: 13.2 µL/min/1e6 cells
- hepatocyte CLint at 5 μM [3, 10]: 13.8 µL/min/1e6 cells
- half-life at 5 μM [3, 11]: 96.1 min
- half-life at 5 μM [3, 12]: 92.4 min
- Intrinsic Clearance [4, 13]: 161.0 μL/min/mg protein
- half-life [4, 13]: 8.6 min
- half-life [4, 14]: 8.8 min
- half-life [4, 15]: 8.4 min
- half-life [4, 16]: 7.6 min
- half-life [4, 17]: 8.3 min
- half-life [4, 20]: 7.9 min
- microsomal CLint [4, 18]: 175 µL/min/mg

Compound: O=C(O)Cc1ccccc1Nc1c(Cl)cccc1Cl [Diclofenac]
- half-life at 5 μM [5]: 20.7 min
- hepatocyte CLint at 5 μM [5]: 92.5 µL/min/1e6 cells

Compound: [2H]C([2H])([2H])N(CCc1c[nH]c2ccccc12)C([2H])([2H])[2H] [SPL028vii, N,N-bis(trideutero)dimethyltryptamine]
- half-life [4, 16]: 9.4 min
- half-life [4, 17]: 10.9 min
- half-life [4, 20]: 10.2 min
- microsomal CLint [4, 18]: 137 µL/min/mg

Compound: [2H]C([2H])([2H])N(C([2H])([2H])[2H])C([2H])([2H])Cc1c[nH]c2ccccc12 [SPL028viii, α,α-dideutero-N,N-bis(trideutero)dimethyltryptamine]
- Intrinsic Clearance [4, 13]: 12.7 μL/min/mg protein
- half-life [4, 13]: 112.2 min
- increase in metabolic stability ([4]; human mitochondrial fraction assays): 14 fold
- half-life [4, 16]: 92.9 min
- microsomal CLint [4, 18]: 10.9 µL/min/mg

Compound: NCCc1c[nH]c2ccc(O)cc12 [Serotonin]
- half-life ([1]; DMSO Vehicle (no inhibitor)): 11.1 min
- microsomal CLint ([1]; DMSO Vehicle (no inhibitor)): 125 µL/min/mg
- half-life [1, 21]: > 420 min
- microsomal CLint [1, 21]: < 3.3 µL/min/mg
- Half-life % change ([2]; human hepatocytes): 73.75%
- Intrinsic clearance % change ([2]; human hepatocytes): −282.18%
- half-life at 5 μM [3, 8]: 33 min
- hepatocyte CLint at 5 μM [3, 9]: 10.1 µL/min/1e6 cells
- hepatocyte CLint at 5 μM [3, 10]: 38.6 µL/min/1e6 cells
- half-life at 5 μM [3, 12]: 33 min
- Intrinsic Clearance [4, 13]: 157.0 μL/min/mg protein
- half-life [4, 14]: 9.3 min
- half-life [4, 15]: 9.1 min
- half-life [4, 16]: 9.1 min
- half-life [4, 17]: 8.5 min
- microsomal CLint [4, 18]: 151 µL/min/mg

Compound: COc1ccc([C@@H]2Sc3ccccc3N(CCN(C)C)C(=O)[C@@H]2OC(C)=O)cc1 [Diltiazem]
- half-life at 5 μM [5]: 87.3 min
- hepatocyte CLint at 5 μM [5]: 22 µL/min/1e6 cells
